The values below come from ChEMBL document CHEMBL1201862, “PubChem BioAssay data set” (2004).

As a reminder, the GI50 is the concentration that inhibits growth by half.

Among the test systems are NCI-H460; UACC-257; U-251; RXF 393; HL-60; T47D; HCT-15; EKVX; LOX IMVI; MOLT-4; SK-MEL-28; PC-3; SK-MEL-2; HOP-62; K562; UO-31; CCRF-CEM; Hs-578T; 786-0; HOP-92.
What all share (experiment): DTP human tumour cell line panel, 48 h

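Interpolation was linear, between the two tested concentrations surrounding the appropriate level; five concentrations were tested over 48 hours in 96-well plates. GI50 marks 50% less growth.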 The source made the active and inactive calls. Rule as the data show it: active = GI50 up to about 1.1 µM and inactive = higher.

For the compound `O=C1c2ccccc2C(=O)c2c1oc1cc(O)c(Cl)cc21`, the GI50 in the test with NCI-H460 is 3.04 µM (inactive); in the test on UACC-257 it was 2.33 µM (inactive); in the test with U-251, 5.36 µM (inactive); in the test with RXF 393 it was 9.46 µM (inactive); in the test with HL-60, 6.92 µM (inactive); in the test with T47D, 16.5 µM (inactive). The GI50 is 4.66 µM in the test with HCT-15; 8.75 µM (inactive) with EKVX; 1.61 µM (inactive) with LOX IMVI; 12.3 µM (inactive) in the test on MOLT-4; 3.05 µM (inactive) in the test on SK-MEL-28; 10.4 µM (inactive) in the test on PC-3. In addition, the GI50 in the test with SK-MEL-2 is 1.99 µM (inactive); in the test on HOP-62, 10.7 µM (inactive); with K562, 13.5 µM (inactive); in the test with UO-31, 11.9 µM (inactive); in the test with CCRF-CEM, 8.71 µM (inactive); in the test on Hs-578T it was 2.29 µM (inactive). Also, the figures for the GI50 with 786-0 and in the test with HOP-92 were 10.8 µM (inactive) and 8.13 µM (inactive), respectively.

Turning to `CCC[N+](C)(C)CCCNC(=O)c1c(O)c2ccccc2[nH]c1=O`, the GI50 with NCI-H460, in the test on UACC-257, in the test with U-251, with RXF 393, with HL-60 and with T47D was > 100 µM (inactive) throughout. Moreover, the GI50 is more than 100 µM in the test on HCT-15; > 100 µM (inactive) in the test on EKVX; > 100 µM (inactive) in the test on LOX IMVI; > 100 µM (inactive) in the test on MOLT-4; > 100 µM (inactive) with SK-MEL-28; > 100 µM (inactive) with PC-3. For the same compound, the GI50 is > 100 µM (inactive) with SK-MEL-2; > 100 µM (inactive) with HOP-62; > 100 µM (inactive) with K562; 53.1 µM (inactive) with UO-31; > 100 µM (inactive) in the test on CCRF-CEM; > 100 µM (inactive) in the test on Hs-578T. The GI50 with 786-0 and in the test with HOP-92 was > 100 µM (inactive) in each case.

For the compound `CCOC(=O)/C=C(\C)Sc1cc(O)c2ccccc2c1O`, the GI50 in the test with NCI-H460 was 19.5 µM (inactive); with UACC-257, 18.8 µM (inactive); with U-251 it was 20.3 µM (inactive); with RXF 393, 14.9 µM (inactive); with HL-60, 3.77 µM (inactive); in the test with T47D, 2.94 µM (inactive). The 50% growth inhibitory concentration (GI50) in the test on HCT-15 was 17.4 µM; with EKVX, 27.9 µM (inactive); with LOX IMVI, 5.37 µM (inactive); with MOLT-4 it was 8.05 µM (inactive); in the test with SK-MEL-28, 13.2 µM (inactive); in the test with PC-3, 26.4 µM (inactive). In addition, the GI50 is 20.9 µM (inactive) in the test with SK-MEL-2; 20.2 µM (inactive) in the test on HOP-62; 5.51 µM (inactive) with K562; 4.51 µM (inactive) with UO-31; 6.64 µM (inactive) in the test on CCRF-CEM; 58.9 µM (inactive) in the test on Hs-578T. For the same compound, the GI50 in the test with 786-0 was 19.8 µM (inactive); in the test with HOP-92, 21.2 µM (inactive).

For `OCC1OC(NCCNCCNC2OC(CO)C(O)C(O)C2O)C(O)C(O)C1O` (stereo not given), the GI50 in the test on NCI-H460, with UACC-257, with U-251, in the test on RXF 393, in the test with HL-60 and with T47D was > 100 µM (inactive) each time. The concentration for 50% growth inhibition (GI50) in the test with HCT-15 was more than 100 µM; with EKVX it was > 100 µM (inactive); with LOX IMVI, > 100 µM (inactive); in the test with MOLT-4 it was > 100 µM (inactive); with SK-MEL-28, > 100 µM (inactive); in the test with PC-3, > 100 µM (inactive). The GI50 in the test on SK-MEL-2, in the test on HOP-62, in the test with K562, in the test with UO-31, with CCRF-CEM and in the test on Hs-578T was > 100 µM (inactive) in each case. The GI50 in the test with 786-0 and in the test on HOP-92 was > 100 µM (inactive) each time.

With `Oc1c(O)c(Cc2ccccc2)c(Cc2ccccc2)c(Cc2ccccc2)c1Cc1ccccc1`, the GI50 in the test with NCI-H460, in the test on UACC-257, in the test on U-251, in the test on RXF 393, in the test with HL-60 and with T47D was > 10 µM (inactive) in each case. Moreover, the GI50 in the test with HCT-15 is more than 10 µM; in the test on EKVX, > 10 µM (inactive); in the test with LOX IMVI, > 10 µM (inactive); in the test on MOLT-4 it was > 10 µM (inactive); with SK-MEL-28 it was > 10 µM (inactive); in the test on PC-3, > 10 µM (inactive). The GI50 with SK-MEL-2, in the test on HOP-62, with K562, in the test on UO-31, in the test on CCRF-CEM and in the test with Hs-578T was > 10 µM (inactive) in each case. Besides, the GI50 in the test with 786-0 and in the test with HOP-92 was > 10 µM (inactive) each time.

For the compound `COC(=O)C1=NN2c3ccccc3CN([C@@H](C)c3ccccc3)C(=O)[C@H]2[C@@H]1C`, the GI50 in the test on NCI-H460 was 38.1 µM (inactive); with UACC-257, 26.9 µM (inactive); in the test with U-251, 42 µM (inactive); in the test with RXF 393, 40.3 µM (inactive); in the test on HL-60, 0.769 µM (active); with T47D it was 17 µM (inactive). The 50% growth inhibitory concentration (GI50) with HCT-15 was 43.9 µM; with EKVX, 27.7 µM (inactive); with LOX IMVI, 35.2 µM (inactive); in the test on MOLT-4 it was 17.3 µM (inactive); in the test with SK-MEL-28, 49.2 µM (inactive); in the test with PC-3 it was 23.8 µM (inactive). Moreover, the GI50 in the test with SK-MEL-2 is 35.9 µM (inactive); in the test on HOP-62, 52.1 µM (inactive); in the test on K562, 7.13 µM (inactive); in the test on UO-31, 56 µM (inactive); in the test with CCRF-CEM it was 0.743 µM (active); with Hs-578T it was 67.1 µM (inactive). For the same compound, the GI50 in the test with 786-0 was 57.7 µM (inactive); with HOP-92, 44.7 µM (inactive).

Regarding `O=C1/C(=C/c2ccccc2)CN(C(=O)OCc2ccccc2)C/C1=C\c1ccccc1`, the GI50 with NCI-H460 was 21.4 µM (inactive); in the test with UACC-257 it was 16 µM (inactive); in the test on U-251, 4.51 µM (inactive); with RXF 393, 13.4 µM (inactive); in the test with HL-60 it was 1.79 µM (inactive); with T47D, 41.4 µM (inactive). Further, the GI50 in the test with HCT-15 was 10.9 µM; with EKVX, 20.7 µM (inactive); with LOX IMVI, 4.76 µM (inactive); in the test on MOLT-4, 2.76 µM (inactive); with SK-MEL-28, 11.5 µM (inactive); in the test with PC-3, 15 µM (inactive). The GI50 with SK-MEL-2 was 17.9 µM (inactive); with HOP-62, 32.1 µM (inactive); in the test on K562, 1.88 µM (inactive); in the test with UO-31, 14.6 µM (inactive); in the test with CCRF-CEM, 2.08 µM (inactive); in the test on Hs-578T, 2.47 µM (inactive). The GI50 was 11.5 µM (inactive) in the test on 786-0 and > 69.5 µM (inactive) in the test on HOP-92.

Take `NS(=O)(=O)c1cc(Br)c(/N=N\c2ccc(O)c3ncccc23)c(Br)c1`: the GI50 is 25.3 µM (inactive) with NCI-H460; 19.6 µM (inactive) in the test with UACC-257; 19.1 µM (inactive) in the test on U-251; 46.5 µM (inactive) in the test on RXF 393; 6.04 µM (inactive) in the test with HL-60; 39 µM (inactive) in the test on T47D. Further, the concentration for 50% growth inhibition (GI50) in the test with HCT-15 was 4.27 µM; in the test with EKVX, 32.3 µM (inactive); in the test with LOX IMVI, 20.9 µM (inactive); with MOLT-4, 3.99 µM (inactive); in the test with SK-MEL-28, 27.4 µM (inactive); in the test with PC-3 it was 29.8 µM (inactive). The GI50 with SK-MEL-2 is 28 µM (inactive); in the test on HOP-62, 25.5 µM (inactive); in the test with K562, 20 µM (inactive); in the test on UO-31, 21.3 µM (inactive); in the test with CCRF-CEM it was 3.78 µM (inactive); with Hs-578T, 21.8 µM (inactive). For the same compound, the GI50 was 23.6 µM (inactive) in the test with 786-0 and 41.8 µM (inactive) in the test with HOP-92.

For `COc1ccc2c(c1)CC[C@@H]1[C@@H]2CC[C@]2(C)/C(=N/OCCN3CCCC3)CC[C@@H]12`, the GI50 was 1.5 µM (inactive) in the test with NCI-H460; 1.75 µM (inactive) with UACC-257; 3.46 µM (inactive) in the test on U-251; 1.92 µM (inactive) with RXF 393; 1.21 µM (inactive) in the test on HL-60; 3.21 µM (inactive) in the test with T47D. Moreover, the GI50 in the test with HCT-15 was 1.25 µM; with EKVX, 4.57 µM (inactive); with LOX IMVI, 1.57 µM (inactive); in the test with MOLT-4, 1.93 µM (inactive); in the test with SK-MEL-28, 1.39 µM (inactive); in the test on PC-3, 3.85 µM (inactive). The GI50 in the test on SK-MEL-2 was 1.82 µM (inactive); in the test with HOP-62, 1.98 µM (inactive); in the test with K562, 0.76 µM (active); in the test with UO-31, 2.81 µM (inactive); in the test with CCRF-CEM, 1.49 µM (inactive); in the test on Hs-578T it was 2.65 µM (inactive). The GI50 with 786-0 was 1.75 µM (inactive); with HOP-92 it was 2.49 µM (inactive).

`N#Cc1ccc(Oc2nc3ccc(C(F)(F)F)cc3nc2-c2ccccc2)cc1`: the GI50 with NCI-H460 was 17.6 µM (inactive); in the test with UACC-257, 21.8 µM (inactive); in the test on U-251, 17.2 µM (inactive); with RXF 393, 26.4 µM (inactive); in the test on HL-60, 20.1 µM (inactive); in the test on T47D, 16.7 µM (inactive). The GI50 was 14.9 µM with HCT-15; 14.3 µM (inactive) in the test on EKVX; 27.2 µM (inactive) with LOX IMVI; 20 µM (inactive) with MOLT-4; 16.6 µM (inactive) with SK-MEL-28; 14 µM (inactive) in the test on PC-3. The GI50 with SK-MEL-2 is 19.5 µM (inactive); in the test with HOP-62, 20.3 µM (inactive); in the test on K562 it was 22.1 µM (inactive); with UO-31, 17.2 µM (inactive); in the test with CCRF-CEM, 20.4 µM (inactive); with Hs-578T it was 20.6 µM (inactive). Moreover, the GI50 was 17.1 µM (inactive) in the test with 786-0 and 12.6 µM (inactive) in the test with HOP-92.
